Experimental findings from article PMC4501006, “Preliminary Characterization and In Vivo Studies of Structurally Identical ^18F- and ^125I-Labeled Benzyloxybenzenes for PET/SPECT Imaging of β-Amyloid Plaques” (Scientific Reports, 2015) are described below.

Structures are written as SMILES.

Series [1] is described as follows: In vivo metabolism (biostability), HPLC analysis of organ samples. The following applies: ICR mice, i.v. The protocol:
All four radioactive ligands degraded to two corresponding polar radioactive products with shorter retention times. […] The good in vivo biostability of these compounds enhances their potential for SPECT mapping of the brain. […] In the plasma, all four ligands were rapidly converted to polar metabolites, leaving only approximately 10% of the parent tracers at 60 min. […] In contrast, the breakdown of [^125I]7a and [^125I]12a was so rapid that almost negligible amounts of parent tracers remained at 30 min (8.8% and 6.3%, respectively). The polar and hydrophilic metabolites metabolized by the liver could be absorbed by the intestine and excreted through the urine, in accordance with the biodistribution results. The rapid metabolism in the liver may be another reason for the faster clearance of these compounds from the normal brain. For structurally identical molecules labeled with radioactive isotopes at different positions, the in vivo metabolic pathways were expected to be the same. However, as only radioactive products can be detected with PET/SPECT scanners, different pharmacokinetics of the radioactive components could lead to different imaging results. […] The dual radiolabeled identical benzyloxybenzene derivatives in this study were expected to undergo the same metabolic reactions, generating different radioactive metabolites. Differences in the biochemical characteristics of the radiometabolites including absorption, distribution, metabolism and excretion are responsible for the discrepancy in the pharmacokinetics of the radioactivity.

The target in another series is Aβ plaques (Homo sapiens, UniProt P05067). Kind of series: Ex vivo autoradiography and brain radioactivity retention, Tg versus wild-type mouse. It is filed as in vivo, Tg mouse (APPswe/PSEN1). Conditions: 30 min post-injection. The protocol: To further characterize the in vivo Aβ imaging capabilities, we conducted ex vivo autoradiographic studies with [^125I]7a which combined high binding affinity, high initial brain uptake, fast clearance and excellent in vivo biostability in the brain. [^125I]7a (1 mCi, 200 μL) was injected intravenously into a Tg mouse (APPswe/PSEN1, male, 27 months old) and an age-matched wild-type mouse (C57BL6, male). Thirty minutes after injection, the brains were removed, weighed and the radioactivity was counted. Then the brains were frozen and sectioned for ex vivo autoradiography. […] Ex vivo autoradiography was performed on a transgenic mouse (APPswe/PSEN1, male, 27 months old) and a wild-type mouse (C57BL6, male, 27 months old). A saline solution (200 μL, 10% EtOH) of 1 mCi of [^125I]7a was injected into the mice via the tail vein. The mice were sacrificed by decapitation at 30 min post-injection, and the brains were immediately removed, weighed and the radioactivity was counted. Frozen brain sections of 20 μm were cut and exposed to a phosphorus plate (Perkin-Elmer, USA) for one week. Ex vivo autoradiographic images were obtained using a phosphor imaging system (Cyclone, Packard). Subsequently the same sections were stained with ThS to confirm the presence and location of Aβ plaques.

The nature of series [2]: Dynamic microPET/CT imaging in normal ICR mice. It is filed as in vivo. Conditions: for brain radioactivity retention from PET time-activity curve: at 60 min; for muscle and bone uptake, standardized uptake value (SUV): entire 60 min PET scan. The procedure:
To further assess the pharmacokinetics of these two couple of radiolabeled benzyloxybenzenes, following dynamic PET/CT and SPECT/CT scans were conducted in normal ICR mice. High contrast PET and SPECT images implied that all the four radiolabeled benzyloxybenzenes can penetrate the BBB to a great degree and washout from the normal brain regions (Fig. 7a). […] Sustained low muscle and bone uptakes were observed during the entire 60 min scans with standardized uptake values (SUV) of approximate 0.7. […] These PET imaging data well matched the in vivo biodistribution results.
Four normal ICR mice (20–22 g, male) were used for dynamic microPET/CT and microSPECT/CT imaging. The whole-body PET/CT scans were performed using Siemens Inveon device (Siemens Medical Solutions), while SPECT/CT scans were conducted with Mediso nanoScan SPECT/CT scanner (Mediso Medical Imaging System). All mice were anesthetized with 2% isoflurane. Dynamic PET and SPECT scans from 0 to 60 min were started immediately after intravenous injection of [^18F]7a (injected dose, 2.2 MBq), [^18F]12a (injected dose, 4.1 MBq), [^125I]7a (injected dose, 25 MBq), and [^125I]12a (injected dose, 48 MBq), respectively. PET images were reconstructed using three-dimensional ordered subsets expectation maximization (3D OSEM) algorithm, and 3D iterative algorithm was used for SPECT image reconstruction. Time frames for PET imaging were 20 × 60 s and 10 × 240 s, and that for SPECT imaging were 20 × 180 s. Regions of interests (ROIs) were manually drawn on the whole brain, heart, liver, muscle and bone using the CT templates and then transferred to corresponding coregistered PET images. SUVs, injected dose and body weight normalized and decay corrected radioactivity concentration, were calculated for all ROIs. TACs were calculated from this.

Sequence of Aβ plaques (P05067 672-711 limits assumed): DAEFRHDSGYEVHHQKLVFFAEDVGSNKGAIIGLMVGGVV

As to `FCCOc1ccc(OCc2ccc([125I])cc2)cc1` [[^125I]7a], in series [1] (post-injection time 2 min), the “Percentage of Parent tracer, Brain” value was 95.9%; the “Percentage of Parent tracer, Feces” value was found to be 22.9%; the “Percentage of Parent tracer, Liver” value is 35.2%; the “Percentage of Parent tracer, Plasma” value amounted to 85.2%. Further, the “Percentage of Parent tracer, Urine” value in series [1] (post-injection time 2 min) is reported as 0.0%. In addition, in series [1] (post-injection time 10 min), the “Percentage of Parent tracer, Brain” value is 86.0%; the “Percentage of Parent tracer, Feces” value worked out at 58.8%; the “Percentage of Parent tracer, Liver” value stood at 13.5%; the “Percentage of Parent tracer, Plasma” value is 41.3%. The “Percentage of Parent tracer, Urine” value in series [1] (post-injection time 10 min) turned out to be 2.6%. Also, in series [1] (post-injection time 30 min), the “Percentage of Parent tracer, Brain” value worked out at 79.4%; the “Percentage of Parent tracer, Feces” value is 2.0%; the “Percentage of Parent tracer, Liver” value is listed as 8.8%; the “Percentage of Parent tracer, Plasma” value worked out at 22.1%. The “Percentage of Parent tracer, Urine” value in series [1] (post-injection time 30 min) is listed as 0.0%. In series [1] (post-injection time 60 min), the “Percentage of Parent tracer, Brain” value was found to be 72.1%; the “Percentage of Parent tracer, Feces” value was determined as 0.0%; the “Percentage of Parent tracer, Liver” value is recorded as 3.3%; the “Percentage of Parent tracer, Plasma” value is on record as 12.3%. In addition, the “Percentage of Parent tracer, Urine” value in series [1] (post-injection time 60 min) was 0.0%. The “higher brain radioactivity retention in Tg mouse than in wild-type control mouse” value at Aβ plaques (i.v., 1 mCi) was 40%. For the same compound, on Aβ plaques (Tg mouse brain sections), the “ex vivo autoradiography, labeling of Aβ plaques” value is given as “clear labeling of Aβ plaques in the Tg mouse brain”.
Take `[18F]CCOc1ccc(OCc2ccc(I)cc2)cc1` [[^18F]7a]: in series [2] (at 8 min), the “brain uptake from PET time-activity curve” value was 5.96 % ID/g. Besides, in series [2], the “brain radioactivity retention from PET time-activity curve” value is listed as 3.08 % ID/g; the “muscle and bone uptake, standardized uptake value (SUV)” value is given as around 0.7. Also, in series [1] (post-injection time 2 min), the “Percentage of Parent tracer, Brain” value amounted to 84.7%; the “Percentage of Parent tracer, Feces” value is 53.6%; the “Percentage of Parent tracer, Liver” value was determined as 79.5%; the “Percentage of Parent tracer, Plasma” value is listed as 43.1%. For the same compound, in series [1] (post-injection time 2 min), the “Percentage of Parent tracer, Urine” value is given as 0.0%. In series [1] (post-injection time 10 min), the “Percentage of Parent tracer, Brain” value came out at 69.8%; the “Percentage of Parent tracer, Feces” value was found to be 18.8%; the “Percentage of Parent tracer, Liver” value was 62.6%; the “Percentage of Parent tracer, Plasma” value is on record as 21.6%. Besides, the “Percentage of Parent tracer, Urine” value in series [1] (post-injection time 10 min) turned out to be 0.0%. Further, in series [1] (post-injection time 30 min), the “Percentage of Parent tracer, Brain” value is 68.9%; the “Percentage of Parent tracer, Feces” value was determined as 10.5%; the “Percentage of Parent tracer, Liver” value turned out to be 48.7%; the “Percentage of Parent tracer, Plasma” value amounted to 21.8%. Further, the “Percentage of Parent tracer, Urine” value in series [1] (post-injection time 30 min) came to 0.0%. Moreover, in series [1] (post-injection time 60 min), the “Percentage of Parent tracer, Brain” value worked out at 34.0%; the “Percentage of Parent tracer, Feces” value was determined as 7.3%; the “Percentage of Parent tracer, Liver” value is 23.4%; the “Percentage of Parent tracer, Plasma” value is 7.2%. The “Percentage of Parent tracer, Urine” value in series [1] (post-injection time 60 min) is 0.0%.
With `[18F]CCOc1ccc(COc2ccc(I)cc2)cc1` [[^18F]12a], the “brain uptake from PET time-activity curve” value in series [2] (at 7 min) was found to be 6.74 % ID/g. Further, in series [2], the “brain radioactivity retention from PET time-activity curve” value was found to be 3.47 % ID/g; the “muscle and bone uptake, standardized uptake value (SUV)” value is around 0.7. Besides, in series [1] (post-injection time 2 min), the “Percentage of Parent tracer, Brain” value is 87.9%; the “Percentage of Parent tracer, Feces” value was 46.7%; the “Percentage of Parent tracer, Liver” value was 91.1%; the “Percentage of Parent tracer, Plasma” value is recorded as 73.7%. In addition, the “Percentage of Parent tracer, Urine” value in series [1] (post-injection time 2 min) worked out at 0.0%. Also, in series [1] (post-injection time 10 min), the “Percentage of Parent tracer, Brain” value stood at 65.7%; the “Percentage of Parent tracer, Feces” value is recorded as 20.9%; the “Percentage of Parent tracer, Liver” value is reported as 85.3%; the “Percentage of Parent tracer, Plasma” value is reported as 40.4%. The “Percentage of Parent tracer, Urine” value in series [1] (post-injection time 10 min) stood at 0.0%. Also, in series [1] (post-injection time 30 min), the “Percentage of Parent tracer, Brain” value is 49.2%; the “Percentage of Parent tracer, Feces” value was 16.8%; the “Percentage of Parent tracer, Liver” value came to 82.2%; the “Percentage of Parent tracer, Plasma” value is on record as 34.1%. The “Percentage of Parent tracer, Urine” value in series [1] (post-injection time 30 min) is 0.0%. In series [1] (post-injection time 60 min), the “Percentage of Parent tracer, Brain” value is reported as 29.8%; the “Percentage of Parent tracer, Feces” value was 17.4%; the “Percentage of Parent tracer, Liver” value is reported as 21.7%; the “Percentage of Parent tracer, Plasma” value was 13.9%. Besides, the “Percentage of Parent tracer, Urine” value in series [1] (post-injection time 60 min) is reported as 0.0%.
